ChEMBL document CHEMBL4229455, “Synthesis and anticancer activity of novel bisindolylhydroxymaleimide derivatives with potent GSK-3 kinase inhibition” (Bioorg Med Chem, 2018)

Key:
Assay type in all cases: functional
[1] = test system: HCT-116; experiment: Cytotoxicity against human HCT116 cells after 48 hrs by SRB assay; details: HCT-116, 48 h
[2] = test system: HCT-116; experiment: Cytotoxicity against human HCT116 cells assessed as cell growth at 0.1 uM after 48 hrs by SRB assay relative to control; details: HCT-116, 48 h, read-out: Activity
[3] = test system: A549; experiment: Cytotoxicity against human A549 cells assessed as cell growth at 0.01 uM after 48 hrs by SRB assay relative to control; details: A549, 48 h, read-out: Activity
[4] = test system: Hs-578T; experiment: Cytotoxicity against human Hs 578T cells assessed as cell growth at 1 uM after 48 hrs by SRB assay relative to control; details: read-out: Activity
[5] = test system: OVCAR-8; experiment: Cytotoxicity against human OVCAR8 cells after 48 hrs by SRB assay; details: OVCAR-8, 48 h
[6] = test system: LOX IMVI; experiment: Cytotoxicity against human LOXIMVI cells assessed as cell growth at 100 uM after 48 hrs by SRB assay relative to control; details: read-out: Activity
[7] = test system: LOX IMVI; experiment: Cytotoxicity against human LOXIMVI cells assessed as cell growth at 0.1 uM after 48 hrs by SRB assay relative to control; details: read-out: Activity
[8] = test system: A498; experiment: Cytotoxicity against human A498 cells assessed as cell growth at 100 uM after 48 hrs by SRB assay relative to control; details: A498, 48 h, read-out: Activity
[9] = test system: KM12; experiment: Cytotoxicity against human KM12 cells after 48 hrs by SRB assay; details: KM12, 48 h
[10] = test system: OVCAR-8; experiment: Cytotoxicity against human OVCAR8 cells assessed as cell growth at 0.1 uM after 48 hrs by SRB assay relative to control; details: OVCAR-8, 48 h, read-out: Activity
[11] = test system: UACC-257; experiment: Cytotoxicity against human UACC257 cells assessed as cell growth at 1 uM after 48 hrs by SRB assay relative to control; details: UACC-257, 48 h, read-out: Activity
[12] = test system: HOP-92; experiment: Cytotoxicity against human HOP92 cells after 48 hrs by SRB assay; details: HOP-92, 48 h; for CC50: read-out: LC50 (the source's name)
[13] = test system: OVCAR-8; experiment: Cytotoxicity against human OVCAR8 cells assessed as cell growth at 0.01 uM after 48 hrs by SRB assay relative to control; details: OVCAR-8, 48 h, read-out: Activity
[14] = test system: MOLT-4; experiment: Cytotoxicity against human MOLT4 cells assessed as cell growth at 0.1 uM after 48 hrs by SRB assay relative to control; details: MOLT-4, 48 h, read-out: Activity
[15] = test system: SK-MEL-5; experiment: Cytotoxicity against human SK-MEL-5 cells after 48 hrs by SRB assay; details: SK-MEL-5, 48 h; for CC50: read-out: LC50 (the source's name)
[16] = test system: CCRF-CEM; experiment: Cytotoxicity against human CCRF-CEM cells assessed as cell growth at 0.01 uM after 48 hrs by SRB assay relative to control; details: read-out: Activity
[17] = test system: NCI-H460; experiment: Cytotoxicity against human NCI-H460 cells assessed as cell growth at 100 uM after 48 hrs by SRB assay relative to control; details: NCI-H460, 48 h, read-out: Activity
[18] = test system: NCI/ADR-RES; experiment: Cytotoxicity against human NCI-ADR-RES cells assessed as cell growth at 0.01 uM after 48 hrs by SRB assay relative to control; details: read-out: Activity
[19] = test system: DU-145; experiment: Cytotoxicity against human DU145 cells assessed as cell growth at 0.01 uM after 48 hrs by SRB assay relative to control; details: DU-145, 48 h, read-out: Activity
[20] = test system: DU-145; experiment: Cytotoxicity against human DU145 cells assessed as cell growth at 1 uM after 48 hrs by SRB assay relative to control; details: DU-145, 48 h, read-out: Activity
[21] = test system: SK-OV-3; experiment: Cytotoxicity against human SKOV3 cells assessed as cell growth at 0.01 uM after 48 hrs by SRB assay relative to control; details: SK-OV-3, 48 h, read-out: Activity
[22] = test system: SK-OV-3; experiment: Cytotoxicity against human SKOV3 cells assessed as cell growth at 1 uM after 48 hrs by SRB assay relative to control; details: SK-OV-3, 48 h, read-out: Activity
[23] = test system: MDA-MB-468; experiment: Cytotoxicity against human MDA-MB-468 cells assessed as cell growth at 1 uM after 48 hrs by SRB assay relative to control; details: MDA-MB-468, 48 h, read-out: Activity
[24] = test system: 786-0; experiment: Cytotoxicity against human 786-O cells assessed as cell growth at 0.01 uM after 48 hrs by SRB assay relative to control; details: 786-0, 48 h, read-out: Activity
[25] = test system: MDA-MB-435; experiment: Cytotoxicity against human MDA-MB-435 cells assessed as cell growth at 100 uM after 48 hrs by SRB assay relative to control; details: MDA-MB-435, 48 h, read-out: Activity
[26] = test system: CCRF-CEM; experiment: Cytotoxicity against human CCRF-CEM cells assessed as cell growth at 1 uM after 48 hrs by SRB assay relative to control; details: read-out: Activity
[27] = test system: TK-10; experiment: Cytotoxicity against human TK10 cells assessed as cell growth at 1 uM after 48 hrs by SRB assay relative to control; details: TK-10, 48 h, read-out: Activity
[28] = test system: MDA-MB-468; experiment: Cytotoxicity against human MDA-MB-468 cells assessed as cell growth at 0.1 uM after 48 hrs by SRB assay relative to control; details: MDA-MB-468, 48 h, read-out: Activity
[29] = test system: PC-3; experiment: Cytotoxicity against human PC3 cells assessed as cell growth at 100 uM after 48 hrs by SRB assay relative to control; details: PC-3, 48 h, read-out: Activity
[30] = test system: UO-31; experiment: Cytotoxicity against human UO31 cells assessed as cell growth at 100 uM after 48 hrs by SRB assay relative to control; details: UO-31, 48 h, read-out: Activity
[31] = test system: HL-60(TB); experiment: Cytotoxicity against human HL-60(TB) cells assessed as cell growth at 1 uM after 48 hrs by SRB assay relative to control; details: HL-60, 48 h, read-out: Activity
[32] = test system: ACHN; experiment: Cytotoxicity against human ACHN cells assessed as cell growth at 100 uM after 48 hrs by SRB assay relative to control; details: read-out: Activity
[33] = test system: KM12; experiment: Cytotoxicity against human KM12 cells assessed as cell growth at 1 uM after 48 hrs by SRB assay relative to control; details: KM12, 48 h, read-out: Activity
[34] = test system: HOP-62; experiment: Cytotoxicity against human HOP62 cells assessed as cell growth at 1 uM after 48 hrs by SRB assay relative to control; details: HOP-62, 48 h, read-out: Activity
[35] = test system: PC-3; experiment: Cytotoxicity against human PC3 cells assessed as cell growth at 0.1 uM after 48 hrs by SRB assay relative to control; details: PC-3, 48 h, read-out: Activity
[36] = test system: COLO 205; experiment: Cytotoxicity against human COLO205 cells after 48 hrs by SRB assay; details: COLO 205, 48 h
[37] = test system: NCI-H226; experiment: Cytotoxicity against human NCI-H226 cells assessed as cell growth at 100 uM after 48 hrs by SRB assay relative to control; details: NCI-H226, 48 h, read-out: Activity

Q: What does the source list for `N#CCCCCCn1cc(C2=C(c3cn(CCCCCC#N)c4ccccc34)C(=O)N(O)C2=O)c2ccccc21`?
A: GI50 [1]: 4.17 µM; LC50 [1]: > 100 µM; TGI [1]: 37.8 µM; growth at 0.1 µM [2]: 97%; growth at 0.01 µM [3]: 100%; growth at 1 µM [4]: 88%; GI50 [5]: 12.3 µM; LC50 [5]: > 100 µM; TGI [5]: > 100 µM; growth at 100 µM [6]: -9%; growth at 0.1 µM [7]: 90%; growth at 100 µM [8]: -1%; GI50 [9]: 4.78 µM; LC50 [9]: > 100 µM; TGI [9]: 33.1 µM; growth at 0.1 µM [10]: 99%; growth at 1 µM [11]: 97%; GI50 [12]: 5.03 µM; TGI [12]: > 100 µM; CC50 [12]: > 100 µM; growth at 0.01 µM [13]: 99%; growth at 0.1 µM [14]: 81%; GI50 [15]: 2.92 µM; TGI [15]: 10.6 µM; CC50 [15]: 42.8 µM; growth at 0.01 µM [16]: 91%; growth at 100 µM [17]: -26%; growth at 0.01 µM [18]: 100%; growth at 0.01 µM [19]: 101%; growth at 1 µM [20]: 107%; growth at 0.01 µM [21]: 98%; growth at 1 µM [22]: 86%; growth at 1 µM [23]: 106%; growth at 0.01 µM [24]: 103%; growth at 100 µM [25]: -27%; growth at 1 µM [26]: 83%; growth at 1 µM [27]: 107%; growth at 0.1 µM [28]: 105%; growth at 100 µM [29]: -4%; growth at 100 µM [30]: -1%; growth at 1 µM [31]: 100%; growth at 100 µM [32]: 4%; growth at 1 µM [33]: 102%; growth at 1 µM [34]: 83%; growth at 0.1 µM [35]: 88%; GI50 [36]: 17.7 µM; LC50 [36]: > 100 µM; TGI [36]: 58.7 µM; growth at 100 µM [37]: -8%

Q: What does the source list for `Cn1cc(C2=C(c3cn(C)c4ncccc34)C(=O)NC2=O)c2ccccc21`?
A: GI50 [1]: 3.24 µM; TGI [1]: 30.2 µM; growth at 0.1 µM [2]: 107%; growth at 0.01 µM [3]: 99%; growth at 1 µM [4]: 48%; GI50 [5]: 4.23 µM; TGI [5]: 39.9 µM; growth at 100 µM [6]: -18%; growth at 0.1 µM [7]: 92%; growth at 100 µM [8]: -49%; GI50 [9]: 2.89 µM; TGI [9]: 13.4 µM; growth at 0.1 µM [10]: 100%; growth at 1 µM [11]: 112%; GI50 [12]: 2.54 µM; TGI [12]: 23.4 µM; CC50 [12]: > 100 µM; growth at 0.01 µM [13]: 105%; growth at 0.1 µM [14]: 119%; GI50 [15]: 2.15 µM; TGI [15]: 5.8 µM; CC50 [15]: 21.8 µM; growth at 0.01 µM [16]: 98%; growth at 100 µM [17]: -36%; growth at 0.01 µM [18]: 101%; growth at 0.01 µM [19]: 107%; growth at 1 µM [20]: 104%; growth at 0.01 µM [21]: 104%; growth at 1 µM [22]: 77%; growth at 1 µM [23]: 78%; growth at 0.01 µM [24]: 99%; growth at 100 µM [25]: -35%; growth at 1 µM [26]: 85%; growth at 1 µM [27]: 87%; growth at 0.1 µM [28]: 96%; growth at 100 µM [29]: -9%; growth at 100 µM [30]: -17%; growth at 1 µM [31]: 113%; growth at 100 µM [32]: -11%; growth at 1 µM [33]: 82%; growth at 1 µM [34]: 87%; growth at 0.1 µM [35]: 94%; GI50 [36]: 1.69 µM; TGI [36]: 3.71 µM; growth at 100 µM [37]: -16%
